This is an account of results in ChEMBL document CHEMBL3507680, “University of Dundee, Gates Library screen for HepG2 cell viability”.

Molecules are shown by their SMILES.

The data set is described as follows: Human HepG2 cell viability assay in 384 well format. In kind it is toxicity, cell-based. Details: dose 125 nL, time 70.5 hour; concentration not given beside the values. The conditions noted are these: HepG2 cells, read-out: Inhibition.
For `NC(=O)Cn1ccc(NC(=O)C2(c3cccc(F)c3)CCC2)n1`, the cytotoxicity at 70.5 h is 19.5%.
Under `Cc1cc(CNC(=O)c2cccs2)ccc1S(C)(=O)=O` stands -3.96%; under `N#CC(NC(=O)CCC(=O)NC1CCCC1)c1ccc(F)cc1F` (configuration not stated), -11.2%; under `CC1c2cccn2CCN1S(=O)(=O)N1CCCCCC1` (configuration not stated), -14.2%.
Under `CCCN(CC1CC1)C(=O)CN1CCCC1c1cnn(C)c1` (configuration not stated) stands -10.4%; under `CCOc1ccc(N(C)S(=O)(=O)c2c[nH]c(C(C)C)n2)cc1`, -4.89%.
Under `CC(Cn1cccn1)NC(=O)N1CCC(NS(C)(=O)=O)CC1` (configuration not stated) stands -17.2%; under `Cc1nc2n(n1)CC(NCC(=O)N(C)Cc1cccs1)CC2` (configuration not stated), 2.31%; under `CN(c1cccc(C#N)c1)S(=O)(=O)c1cc(C(=O)O)ccc1Cl`, -12.6%.
Consider `Cc1cc(C(=O)Nc2ccc(OCC3CCOCC3)cc2)[nH]n1`, for which the cytotoxicity at 70.5 h was 1.95%.
Turning to `Cc1cc(NC(=O)Cn2nc(C)c(C#N)c2N)ccc1Br`, the cytotoxicity at 70.5 h was -7.3%.
The figure for `COc1ccc(C)cc1NC(=O)Cn1nc(C)c(C#N)c1N` is -5.55%; for `Cc1nn(CC(=O)Nc2ccc(F)cc2)c(N)c1C#N` it is -0.498%; for `O=C(Cn1cc(C2CC2)nn1)NC(c1ccc(Cl)cc1)C1CC1` (configuration not stated) it is -8.06%.
The figure for `O=C(Cn1cc(C2CC2)nn1)NC(c1cc(F)ccc1F)C1CC1` (configuration not stated) is -5.37%; for `CNC(=O)C(C)(C)CNC(=O)Nc1ccc(C)cn1` it is -3.94%; for `CNC(=O)C(C)(C)CNC(=O)Nc1ccncc1C` it is -9.08%.
Regarding `NC(=O)c1cccc(CCNC(=O)N2CCCC2)c1`, the cytotoxicity at 70.5 h is -8%.
Under `COc1cc(NCc2ncc[nH]2)ccc1Br` stands -1.95%; under `COCCn1cc(NC(=O)NCC(C)N2CCOCC2)cn1` (configuration not stated), -13.2%; under `CC(CC#N)N(C)Cc1ccc(F)cc1F` (configuration not stated), -6.44%.
Take `C=C(C)CN(CC)Cc1nc(CC)no1`: the cytotoxicity at 70.5 h was -8.43%.
The figure for `CC(CC#N)N(C)Cc1ccc(F)cc1C#N` (configuration not stated) is 11.9%; for `Cc1cnn(CCNC(C)c2nnc(-c3ccccc3)o2)c1` (configuration not stated) it is -7.05%; for `C=C(C)CN1CCOC(Cn2cncn2)C1` (configuration not stated) it is 32%.
Under `COc1ccc(NC(=O)C2CCCO2)cc1OCc1cccnc1` (configuration not stated) stands 49.9%.
Regarding `Cc1ccc2cc(C(=O)N3CCN(S(C)(=O)=O)CC3)[nH]c2c1`, the cytotoxicity at 70.5 h amounted to 12.7%.
The figure for `O=C(COc1ccccc1)N(Cc1ccncc1)C1CC1` is -8.79%; for `COc1ccccc1C(C)N1CCN(S(C)(=O)=O)CC1` (configuration not stated) it is 11.4%; for `CC(=O)NC(C)(C)c1noc(C2(C#N)CCCCC2)n1` it is -3.45%.
The figure for `O=C(NCc1nncn1C1CC1)c1ccc(F)c(COCC2CC2)c1` is 7.64%; for `COCCC1(CNC(=O)NCC2CCCS2)CCCC1` (configuration not stated) it is -3.7%; for `CC(NC(=O)N1CCN(c2cccs2)CC1)c1ccc(C#N)cc1` (configuration not stated) it is -2.79%.
The figure for `CC(NC(=O)N1CCN(c2cccs2)CC1)c1ccncc1` (configuration not stated) is -3.43%; for `CC(=O)N1CCCN(C(=O)NCCCc2cn[nH]c2C)CC1` it is -2.68%; for `COCCOCC(=O)N(C)Cc1ccc(OCc2cccs2)cc1` it is -6.68%.
In the case of `CCOC(=O)C1CCN(CCCc2nnnn2-c2ccccc2)CC1`, the cytotoxicity at 70.5 h was -3.5%.
The figure for `CC(=O)N(C)Cc1ccc(OCc2cccs2)cc1` is -2.58%; for `CCOCCN1CCN(CCCc2nnnn2-c2ccccc2)CC1` it is -5.57%; for `CC(C)c1nsc(N2CCc3sccc3C2)n1` it is -11.5%.
The figure for `COCCC1(CNC(=O)NCC2CCCN(C)C2)CCCC1` (configuration not stated) is -1.2%.
For `COc1ccc(CNC(C)c2cnc3cc(C)nn3c2C)cc1` (configuration not stated), the cytotoxicity at 70.5 h is -2.4%.
With `Cc1cc2ncc(C(C)NCc3cccnc3)c(C)n2n1` (configuration not stated), the cytotoxicity at 70.5 h is -3.89%.
Under `CC(C)C1CN(C(=O)Nc2cnn(CC(F)F)c2)CCO1` (configuration not stated) stands -4.6%; under `Cc1nc(C2CCCN2CCOCC2CC2)no1` (configuration not stated), -11.1%; under `Cc1cnn(CCCNC(=O)NCCS(=O)(=O)Nc2ccccc2)c1`, -25.5%.
Regarding `NC(=O)C1CCN(CCCNC(=O)Nc2nncs2)CC1`, the cytotoxicity at 70.5 h is -14.5%.
Under `Cc1ccccc1C(CC(=O)N1CCc2sccc2C1)NC(N)=O` (configuration not stated) stands -21.9%; under `Cc1csc(NC(=O)NCCCN2CCC(C(N)=O)CC2)n1`, -16.3%.
`CN1CC(C(=O)NCCc2ccc(Br)cc2F)CC1=O` (configuration not stated): the cytotoxicity at 70.5 h is -19.2%.
Under `CCC(Nc1ccc(CCN2CCCCC2)cc1)C(N)=O` (configuration not stated) stands -8.14%; under `CN1CC(C(=O)NCc2ccc(Br)cc2F)CC1=O` (configuration not stated), -14.4%; under `Cc1cnn(CCCNC(=O)NC(C)C(=O)Nc2ccccc2)c1` (configuration not stated), 6.05%.
Under `CSc1ccc(OCCN2CCNC(=O)C2C)cc1` (configuration not stated) stands -15.5%.
In the case of `O=C(Cc1ccccc1O)NC1CCCN(c2ccccc2F)C1=O` (configuration not stated), the cytotoxicity at 70.5 h was -18.3%.
The figure for `Cc1c(C(=O)NCC(C)(C)S(C)(=O)=O)cccc1-c1ccccn1` is -16.9%.
The figure for `Cc1ccccc1CNC(=O)CNc1ccc(OC2CCOC2)cc1` (configuration not stated) is -13.6%; for `COc1ccccc1CN(Cc1nc(C)no1)C1CC1` it is -20.3%; for `Cc1cc(CC(=O)NC2CCCN(c3ccccc3Cl)C2=O)n[nH]1` (configuration not stated) it is -19%.
Under `COCc1nn(Cc2ccc(Br)s2)c(=O)o1` stands -9.84%; under `COc1ccccc1CN(Cc1nc(CC(C)C)no1)C1CC1`, -14.2%.
In the case of `CCCc1nn(Cc2ccc(Br)s2)c(=O)o1`, the cytotoxicity at 70.5 h is -23.4%.
As for `NC1CCCN(Cc2cccc(C(F)(F)F)c2)C1=O` (configuration not stated), the cytotoxicity at 70.5 h was -7.1%.
With `CC(C)c1nc(C2CCCN2CCS(C)(=O)=O)no1` (configuration not stated), the cytotoxicity at 70.5 h was -12.9%.
In the case of `Cc1cc(CC(=O)NC2CCCN(Cc3ccccc3)C2=O)n[nH]1` (configuration not stated), the cytotoxicity at 70.5 h is -21.2%.
Under `Cc1cc(F)ccc1N1CCCC(NC(=O)CCCn2ccnc2)C1` (configuration not stated) stands -26%.
The figure for `CN(CCc1ccc2c(c1)CCO2)CC1CCS(=O)(=O)C1` (configuration not stated) is -9.73%.
Under `CCc1noc(CN(C)C(=O)C(C)(C)Oc2cccc(Cl)c2)n1` stands 7.49%; under `Cc1cc(C)c(CNC(=O)NCc2nnc3n2CCC3)c(=O)[nH]1`, 14.7%.
For the compound `Cc1cccc(-c2nc(C)nn2CN2CCN(S(C)(=O)=O)CC2)c1`, the cytotoxicity at 70.5 h was -3.93%.
Under `COC(=O)CNC(=O)C1(NC(=O)c2ccc3[nH]ncc3c2)CCCC1` stands 0.707%; under `CC(C)S(=O)(=O)Cc1cccc(NC(=O)c2ccc[nH]2)c1`, -11%.
For the compound `CCc1noc(CN(C)C(=O)COc2cccc(Cl)c2C)n1`, the cytotoxicity at 70.5 h was -6.73%.
`CC(C)C(CCO)NC(=O)Nc1cc(F)ccc1-n1cccn1` (configuration not stated): the cytotoxicity at 70.5 h is -3.1%.
As to `CC(C)c1nc(C2CCCN2c2cnc3ccccc3n2)no1` (configuration not stated), the cytotoxicity at 70.5 h is -6.53%.
The figure for `COCC(=O)N1CCC(Nc2ccnc3ccc(Cl)cc23)CC1` is 4.85%.
The figure for `Cc1ccc(S(C)(=O)=O)cc1C(=O)NS(=O)(=O)c1cccs1` is -5.12%; for `Cc1nc2c(s1)C(N(C)C(=O)NCCCC(C)(C)CO)CCC2` (configuration not stated) it is -6.11%.
The figure for `O=C(CCOCC(F)(F)F)NS(=O)(=O)c1cccnc1` is -3.03%; for `CCC(C)NS(=O)(=O)Cc1cccc(NC(=O)c2ccc[nH]2)c1` (configuration not stated) it is -2.71%; for `CCC(C)NS(=O)(=O)Cc1cccc(NC(=O)C2=CCCC2)c1` (configuration not stated) it is -4.4%.
`COc1cc(F)cc(NC(=O)NCc2cccc(N(C)C)n2)c1`: the cytotoxicity at 70.5 h came to 16.5%.
Under `Cc1cc(C)c(CNC(=O)NCc2nnc3n2CCCCC3)c(=O)[nH]1` stands -5.09%.
Under `CC1CCN(C(=O)CSCc2noc(C(C)C)n2)CC1` stands -4.52%; under `Cn1cc(C(O)CNC(=O)Nc2cc(F)ccc2-n2cccn2)cn1` (configuration not stated), 5.74%.
The figure for `CCNC(=O)N(C)C1CCCc2nc(C)sc21` (configuration not stated) is -2.26%; for `CC(=O)N1CCN(C(=O)NCCCN(C)S(C)(=O)=O)CC1` it is -5.97%.
In the case of `CC(=O)N1CCCN(C(=O)NCCCN(C)S(C)(=O)=O)CC1`, the cytotoxicity at 70.5 h was -8.8%.
Under `CC1CCN(C(=O)CSCc2nc(C3CC3)no2)CC1` stands -2.56%; under `CC(C)Cc1nc(CSCC(=O)N2CCC(C)CC2)no1`, 3.72%.
Under `Cn1ncnc1NCc1ccc(F)cc1` stands -9.9%; under `Cc1cc(=O)n2nc(Oc3ccc(Cl)c(C)c3)sc2n1`, -6.83%; under `CC(NC(=O)NCc1cccnc1N(C)C)c1cccs1` (configuration not stated), -23.6%.
Under `Cc1ccc(S(=O)(=O)N2CCN(Cc3ccncc3)CC2)c(Cl)c1` stands -26.7%; under `CC(C)NC(=O)c1noc2c1CN(Cc1cnn(C)c1)CC2`, -5.58%.
In the case of `Cc1cccc(S(=O)(=O)N2C[C@@H]3C[C@@H](c4nc(C)no4)O[C@@H]3C2)c1`, the cytotoxicity at 70.5 h is -3.34%.
Under `CNC(=O)N1CCC2(CC1)c1ncc(-c3cccc(F)c3)n1CCN2C` stands -1.6%; under `Cc1ccc(CN2C[C@H](OCC3CCOCC3)[C@H]3COC[C@H]32)o1`, 17%; under `CCOC(=O)[C@]12CCCN(Cc3cccs3)C[C@H]1CN(C(C)=O)C2`, -1.84%.
For the compound `c1cncc(OC[C@]23COC[C@H]2CN(C2CCOCC2)C3)c1`, the cytotoxicity at 70.5 h is -1.59%.
The figure for `CN(Cc1ccco1)C[C@H]1OC[C@@H]2CN(c3ncc(F)cn3)CC[C@@H]21` is -1.81%; for `COCCO[C@H]1CCN(c2ccc(C)nn2)[C@H]1Cc1cccnc1` it is 12.5%.
